The text below walks through data of ChEMBL document CHEMBL1201862, “PubChem BioAssay data set” (2004).

The structures appear in SMILES notation.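 96-well plates; 48 h exposure; 5 concentrations. Endpoints by linear interpolation between flanking doses. Not reached: highest tested concentration assigned. The concentration for 50% growth inhibition is given as GI50.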 The source made the active and inactive calls. No stated cut-off is given here; in the data, active = GI50 up to about 1.1 µM and inactive = higher. Where only a bound is given, the exact number is not on record here.

Test systems include A498; HL-60; HOP-92; HT-29; IGROV-1; KM12; OVCAR-4; OVCAR-5; RPMI-8226; SF-268; SK-MEL-28; SK-MEL-5; SR; RXF 393; COLO 205.
Common to all, as to experiment: NCI tumour cell line growth inhibition, 48 h

Regarding `CC1(C)C=C(N2CCN(C3=CC(C)(C)NC(C)(C)C3)CC2)CC(C)(C)N1`, the GI50 in the test with A498, in the test on HL-60, with HOP-92, with HT-29, with IGROV-1 and with KM12 was > 100 µM (inactive) throughout. Besides, the GI50 in the test with OVCAR-4, in the test with OVCAR-5, in the test with RPMI-8226, in the test with SF-268, in the test on SK-MEL-28 and in the test on SK-MEL-5 was > 100 µM (inactive) throughout. For the same compound, in the test with SR, the GI50 is > 100 µM (inactive).
For the compound `COc1ccc2c(c1)[n+]([O-])c(C(=O)CC(=O)C(=O)Nc1cccc(C)c1C)c(C)[n+]2[O-]`, the GI50 in the test with HL-60, in the test on HOP-92, with HT-29, with IGROV-1, in the test with KM12 and in the test on OVCAR-4 was > 100 µM (inactive) in each case. Also, the GI50 with OVCAR-5, in the test on RPMI-8226, in the test on RXF 393, in the test with SF-268, in the test with SK-MEL-28 and with SK-MEL-5 was > 100 µM (inactive) each time. The GI50 in the test with SR is > 100 µM (inactive).
In the case of `CCOC(=O)CCC(=O)C1c2cccc(O)c2C(=O)c2c(O)cc(C)cc21` (stereo not drawn), the GI50 in the test with A498 is 2.28 µM (inactive); with COLO 205 it was 2 µM (inactive); in the test with HL-60 it was 0.676 µM (active); with HOP-92, 1.46 µM (inactive); in the test with HT-29, 2.47 µM (inactive); with IGROV-1, 0.289 µM (active). Also, the GI50 is 0.245 µM (active) with KM12; 0.569 µM (active) in the test on OVCAR-4; 0.706 µM (active) in the test on OVCAR-5; 1.01 µM (active) with RPMI-8226; 0.391 µM (active) in the test on RXF 393; 0.542 µM (active) in the test on SF-268. Also, the GI50 is 1.48 µM (inactive) in the test on SK-MEL-28, 0.676 µM (active) with SK-MEL-5 and 0.743 µM (active) in the test on SR.
Consider `CC(=O)CC(=O)Nc1ccc(OS(N)(=O)=O)cc1`, for which the GI50 in the test with A498, in the test with COLO 205, in the test with HL-60, with HOP-92, in the test on HT-29 and with IGROV-1 was > 100 µM (inactive) in each case. The GI50 in the test on KM12, in the test on OVCAR-4, with OVCAR-5, in the test with RPMI-8226, in the test with RXF 393 and in the test with SF-268 was > 100 µM (inactive) throughout. Moreover, the GI50 with SK-MEL-28, in the test on SK-MEL-5 and with SR was > 100 µM (inactive) in each case.
Consider `Cc1ccc(N2C(=O)/C(=C3\Sc4c(nc(C)n(C)c4=O)N3c3ccccc3)SC2=S)cc1`, for which the GI50 with A498 is 30.1 µM (inactive); in the test on COLO 205 it was > 100 µM (inactive); in the test with HL-60, > 100 µM (inactive); in the test with HOP-92, 33.8 µM (inactive); with HT-29, > 100 µM (inactive); with IGROV-1, 48 µM (inactive). For the same compound, the GI50 in the test with KM12 was > 100 µM (inactive); with OVCAR-4 it was 76.9 µM (inactive); with OVCAR-5, > 100 µM (inactive); in the test on RPMI-8226 it was > 100 µM (inactive); in the test on RXF 393, 18.7 µM (inactive); in the test with SF-268, 34.6 µM (inactive). For the same compound, the GI50 is 41.1 µM (inactive) in the test with SK-MEL-28, 83.8 µM (inactive) in the test with SK-MEL-5 and > 100 µM (inactive) with SR.
Consider `CC1COC(C)(C)P(=O)(c2ccccc2)C1` (stereo not drawn), for which the GI50 in the test with A498, in the test with COLO 205, in the test on HL-60, with HT-29, in the test with IGROV-1 and with KM12 was > 100 µM (inactive) each time. For the same compound, the GI50 in the test on OVCAR-5, in the test on RPMI-8226, with RXF 393, with SK-MEL-28, in the test with SK-MEL-5 and in the test with SR was > 100 µM (inactive) in each case.
Regarding `CCOC(=O)/C(=C\c1ccc(OCc2ccccc2)c(OC)c1)C(=O)c1ccccc1`, the GI50 in the test with COLO 205 was 30.8 µM (inactive); in the test with HL-60 it was 20.1 µM (inactive); in the test on IGROV-1 it was 29.7 µM (inactive); in the test with KM12 it was 19.5 µM (inactive); with OVCAR-4, 36 µM (inactive); in the test with OVCAR-5 it was 20.7 µM (inactive). The GI50 in the test on RPMI-8226 was 27.6 µM (inactive); in the test with SK-MEL-28, 14.6 µM (inactive); with SK-MEL-5, 17.9 µM (inactive); in the test with SR, 33 µM (inactive).
As for `COc1ccc(Cn2c(C)nc3c2C(=O)c2ccccc2C3=O)cc1`, the GI50 in the test on COLO 205 is 9.02 µM (inactive); with HL-60, 4.17 µM (inactive); with HT-29, 4.94 µM (inactive); with IGROV-1, 9.86 µM (inactive); in the test on KM12, 5.31 µM (inactive); in the test on OVCAR-4, 15.5 µM (inactive). Also, the GI50 in the test on RXF 393 was 14 µM (inactive); with SF-268, 4.49 µM (inactive); in the test with SK-MEL-28, 21 µM (inactive); with SK-MEL-5, 7.71 µM (inactive); in the test with SR, 1.44 µM (inactive).
In the case of `CC(=O)OCc1c2ccccc2c(C)c2c1cc(F)c1ccccc12`, the GI50 in the test with A498 was 39 µM (inactive); in the test on COLO 205 it was 16.2 µM (inactive); in the test with HL-60, 23 µM (inactive); in the test on HOP-92, 40.6 µM (inactive); in the test on HT-29 it was 17.7 µM (inactive); in the test with IGROV-1, 22.5 µM (inactive). The GI50 in the test with KM12 is > 100 µM (inactive); in the test with OVCAR-4, 24.2 µM (inactive); in the test on OVCAR-5 it was 42.7 µM (inactive); in the test with RXF 393 it was 25.6 µM (inactive); with SF-268, 29.8 µM (inactive); with SK-MEL-28 it was 97.5 µM (inactive). Also, the results for the GI50 in the test with SK-MEL-5 and in the test with SR were 25.5 µM (inactive) and 12.6 µM (inactive), respectively.
On to `CC(=S)NNC(=O)c1ccncc1`, for which the GI50 in the test on A498, in the test on COLO 205, in the test on HL-60, with HOP-92, in the test on HT-29 and with IGROV-1 was > 100 µM (inactive) throughout. Besides, the GI50 with KM12, with OVCAR-4, with OVCAR-5, with RXF 393, in the test with SF-268 and with SK-MEL-28 was > 100 µM (inactive) throughout. Also, the GI50 in the test with SK-MEL-5 and in the test on SR was > 100 µM (inactive) throughout.
With `COc1ccc(CCNCc2cccc(OC)c2OC)cc1OC`, the GI50 in the test with COLO 205 is > 100 µM (inactive); in the test on HL-60, > 100 µM (inactive); with HOP-92, 38.1 µM (inactive); with HT-29 it was 88.7 µM (inactive); in the test on IGROV-1, > 100 µM (inactive); with KM12, > 100 µM (inactive). Further, the GI50 in the test with OVCAR-4, in the test with OVCAR-5, with RPMI-8226, with RXF 393, in the test with SF-268 and with SK-MEL-28 was > 100 µM (inactive) throughout. Besides, the GI50 in the test on SK-MEL-5 is > 100 µM (inactive).
Consider `COC(=O)C1=C(c2cc(OC)c(OC)c(OC)c2)OC(c2cc(OC)c(OC)c(OC)c2)C1` (stereo not drawn), for which the GI50 is 24.1 µM (inactive) in the test on A498; 16.4 µM (inactive) in the test with COLO 205; 10.7 µM (inactive) in the test on HOP-92; 24.3 µM (inactive) with HT-29; 20.1 µM (inactive) with IGROV-1; 17.7 µM (inactive) with KM12. Besides, the GI50 is 12 µM (inactive) with OVCAR-4; 33.3 µM (inactive) in the test with OVCAR-5; 23.1 µM (inactive) in the test on RPMI-8226; 33.9 µM (inactive) with RXF 393; 46.2 µM (inactive) in the test on SF-268; 53.1 µM (inactive) in the test on SK-MEL-28. Moreover, the GI50 with SK-MEL-5 was 16 µM (inactive); in the test on SR, 18 µM (inactive).
For `CC(=O)C(CN(C(C)C)C(C)C)C(c1ccccc1)c1c(O)c2ccccc2oc1=O` (stereo not drawn), the GI50 in the test on A498, with COLO 205, in the test with HL-60, with HT-29, in the test on IGROV-1 and in the test on KM12 was > 100 µM (inactive) throughout. For the same compound, the GI50 in the test with OVCAR-4 is > 100 µM (inactive); with OVCAR-5 it was > 100 µM (inactive); in the test on RPMI-8226, > 100 µM (inactive); in the test with RXF 393 it was 60.1 µM (inactive); in the test on SF-268, > 100 µM (inactive); in the test with SK-MEL-28, > 100 µM (inactive). For the same compound, the GI50 with SK-MEL-5 and with SR was > 100 µM (inactive) in each case.
In the case of `CC(CC[C@@H](C)C1CCC2[C@@H]3CC(O)C4CC(O)[C@@H](O)C[C@]4(C)C3CC[C@@]21C)C(C)(C)C` (stereo partly drawn), the GI50 in the test with A498, in the test with COLO 205, with HL-60, with HOP-92, in the test on HT-29 and in the test on IGROV-1 was > 100 µM (inactive) throughout. The GI50 in the test with KM12, in the test on OVCAR-4, in the test with OVCAR-5, with RPMI-8226, in the test on RXF 393 and in the test on SF-268 was > 100 µM (inactive) in each case. Besides, the GI50 in the test with SK-MEL-28, in the test on SK-MEL-5 and in the test on SR was > 100 µM (inactive) each time.
